# Assay results: PMC6934184, “Selective DNA-PKcs inhibition extends the therapeutic index of localized radiotherapy and chemotherapy” (The Journal of Clinical Investigation, 2019)
# Biological target: T1, TAOK2 (TAO1) (Homo sapiens, UniProt Q9UL54)
# T1 construct: purchased Thermo Fisher Scientific (Life Technologies) SelectScreen
# Assay: SelectScreen Z'LYTE
# Assay type: biochemical
# Outline: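 Percent values come from Thermo SelectScreen profiling of NU5455, combining activity and binding assays. CSF1R was run in Z'LYTE format at Km app ATP, and CAMK1 in Adapta format with ATP listed at 10.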
# T1 sequence (Q9UL54 whole entry): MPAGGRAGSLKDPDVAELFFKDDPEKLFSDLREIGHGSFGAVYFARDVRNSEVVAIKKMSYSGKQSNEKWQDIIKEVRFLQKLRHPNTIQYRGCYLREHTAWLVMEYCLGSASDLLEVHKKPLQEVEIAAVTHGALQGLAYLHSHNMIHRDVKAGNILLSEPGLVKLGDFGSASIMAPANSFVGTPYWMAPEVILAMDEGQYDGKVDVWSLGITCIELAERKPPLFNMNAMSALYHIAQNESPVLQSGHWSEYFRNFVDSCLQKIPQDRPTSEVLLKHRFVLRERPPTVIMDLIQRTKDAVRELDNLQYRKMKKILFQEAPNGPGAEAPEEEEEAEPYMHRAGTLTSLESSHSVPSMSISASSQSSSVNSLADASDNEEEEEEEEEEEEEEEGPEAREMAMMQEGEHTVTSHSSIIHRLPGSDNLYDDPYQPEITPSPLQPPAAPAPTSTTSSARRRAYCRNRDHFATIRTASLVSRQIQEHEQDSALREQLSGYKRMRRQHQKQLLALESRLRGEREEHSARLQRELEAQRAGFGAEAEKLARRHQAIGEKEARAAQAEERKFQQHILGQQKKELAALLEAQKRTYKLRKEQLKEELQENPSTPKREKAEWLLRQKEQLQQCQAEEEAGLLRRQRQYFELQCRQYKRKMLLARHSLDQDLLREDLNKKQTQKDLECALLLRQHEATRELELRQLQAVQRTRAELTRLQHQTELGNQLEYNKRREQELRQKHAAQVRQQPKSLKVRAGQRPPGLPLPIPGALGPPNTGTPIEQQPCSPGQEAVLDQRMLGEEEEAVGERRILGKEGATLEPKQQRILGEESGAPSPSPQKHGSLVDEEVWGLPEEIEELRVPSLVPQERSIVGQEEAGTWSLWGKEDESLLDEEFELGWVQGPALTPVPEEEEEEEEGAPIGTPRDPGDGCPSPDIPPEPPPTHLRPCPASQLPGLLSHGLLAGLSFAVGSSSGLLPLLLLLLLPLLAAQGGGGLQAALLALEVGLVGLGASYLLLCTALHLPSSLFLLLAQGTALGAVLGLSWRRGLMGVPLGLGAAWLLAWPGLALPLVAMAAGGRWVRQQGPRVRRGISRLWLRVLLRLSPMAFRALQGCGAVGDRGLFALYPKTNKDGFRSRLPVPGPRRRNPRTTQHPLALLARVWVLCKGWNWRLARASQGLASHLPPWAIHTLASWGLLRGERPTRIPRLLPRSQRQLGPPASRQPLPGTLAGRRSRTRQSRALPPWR
structure (smiles),measurement,value
CN(C(=O)CN1CCOCC1)c1ccc2sc3c(-c4cccc5c(=O)cc(N6CC7CCC(C6)O7)oc45)cccc3c2c1 [NU5455],inhibition at 1 µM,-5.1%
